Test results as given in publication PMC10907603, “MFSD7c functions as a transporter of choline at the blood–brain barrier” (Cell Research, 2024).

Experiments:
Test in all cases: [3H]choline uptake in transfected HEK293 cells
Type in all cases: cell-based
[1] = target: T1, MeMfsd7c (Oryzias latipes, UniProt H2LZ31); conditions: 100 µM choline, DMEM with 10% FBS, 37 °C, 1 h; labelled compound
T1 construct: gene flvcr2b
T1 sequence (H2LZ31 1-532): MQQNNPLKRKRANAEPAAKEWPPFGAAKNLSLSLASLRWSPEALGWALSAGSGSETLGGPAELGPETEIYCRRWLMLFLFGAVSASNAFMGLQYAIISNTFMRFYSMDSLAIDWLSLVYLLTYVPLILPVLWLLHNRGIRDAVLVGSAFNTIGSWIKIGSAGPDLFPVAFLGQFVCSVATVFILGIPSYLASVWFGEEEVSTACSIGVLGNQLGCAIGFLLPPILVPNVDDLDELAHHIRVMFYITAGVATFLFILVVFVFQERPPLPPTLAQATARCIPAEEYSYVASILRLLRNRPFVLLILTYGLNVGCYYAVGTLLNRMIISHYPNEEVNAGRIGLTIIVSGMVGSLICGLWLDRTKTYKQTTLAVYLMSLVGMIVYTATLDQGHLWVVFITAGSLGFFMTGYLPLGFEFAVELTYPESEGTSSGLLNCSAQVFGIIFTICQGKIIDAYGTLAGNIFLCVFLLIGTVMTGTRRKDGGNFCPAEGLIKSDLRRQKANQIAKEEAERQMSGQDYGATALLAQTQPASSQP

[2] = target: T2, XeMfsd7c (Xenopus tropicalis, UniProt Q28EC5); conditions: 100 µM choline, DMEM with 10% FBS, 37 °C, 1 h; labelled compound
T2 construct: gene flvcr2
T2 sequence (Q28EC5 1-494): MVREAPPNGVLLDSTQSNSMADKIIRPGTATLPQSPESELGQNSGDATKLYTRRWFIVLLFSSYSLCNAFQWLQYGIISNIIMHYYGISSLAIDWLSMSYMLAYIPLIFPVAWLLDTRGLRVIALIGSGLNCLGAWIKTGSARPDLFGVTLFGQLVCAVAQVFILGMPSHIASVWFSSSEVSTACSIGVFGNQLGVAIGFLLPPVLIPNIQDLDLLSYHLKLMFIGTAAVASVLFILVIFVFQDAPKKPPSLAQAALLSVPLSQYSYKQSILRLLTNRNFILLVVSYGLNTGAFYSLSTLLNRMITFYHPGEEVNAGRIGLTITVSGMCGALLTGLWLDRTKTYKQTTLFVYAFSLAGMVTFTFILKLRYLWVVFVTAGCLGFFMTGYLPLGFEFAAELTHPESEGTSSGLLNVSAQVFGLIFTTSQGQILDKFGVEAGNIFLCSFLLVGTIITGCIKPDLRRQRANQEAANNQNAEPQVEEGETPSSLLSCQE

[3] = target: T3, DaMfsd7c_a (Danio rerio, UniProt A0A0R4ILB2); conditions: 100 µM choline, DMEM with 10% FBS, 37 °C, 1 h; labelled compound
T3 construct: gene flvcr2a
T3 sequence (A0A0R4ILB2 1-470): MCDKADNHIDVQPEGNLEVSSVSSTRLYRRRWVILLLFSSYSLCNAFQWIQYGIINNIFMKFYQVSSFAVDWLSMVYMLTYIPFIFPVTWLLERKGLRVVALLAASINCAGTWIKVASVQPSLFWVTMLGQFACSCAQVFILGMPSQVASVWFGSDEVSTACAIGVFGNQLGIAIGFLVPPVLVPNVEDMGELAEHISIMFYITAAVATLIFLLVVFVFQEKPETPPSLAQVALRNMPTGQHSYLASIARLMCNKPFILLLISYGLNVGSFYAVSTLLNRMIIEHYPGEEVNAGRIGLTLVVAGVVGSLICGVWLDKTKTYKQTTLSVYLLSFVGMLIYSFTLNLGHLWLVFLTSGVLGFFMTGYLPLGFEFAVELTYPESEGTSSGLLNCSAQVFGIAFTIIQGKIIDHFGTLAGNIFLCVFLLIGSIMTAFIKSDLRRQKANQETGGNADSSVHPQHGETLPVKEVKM

[4] = target: T4, DaMfsd7c_b (Danio rerio, UniProt A0A8M9Q308); conditions: 100 µM choline, DMEM with 10% FBS, 37 °C, 1 h; labelled compound
T4 construct: gene flvcr2b
T4 sequence (A0A8M9Q308 1-485): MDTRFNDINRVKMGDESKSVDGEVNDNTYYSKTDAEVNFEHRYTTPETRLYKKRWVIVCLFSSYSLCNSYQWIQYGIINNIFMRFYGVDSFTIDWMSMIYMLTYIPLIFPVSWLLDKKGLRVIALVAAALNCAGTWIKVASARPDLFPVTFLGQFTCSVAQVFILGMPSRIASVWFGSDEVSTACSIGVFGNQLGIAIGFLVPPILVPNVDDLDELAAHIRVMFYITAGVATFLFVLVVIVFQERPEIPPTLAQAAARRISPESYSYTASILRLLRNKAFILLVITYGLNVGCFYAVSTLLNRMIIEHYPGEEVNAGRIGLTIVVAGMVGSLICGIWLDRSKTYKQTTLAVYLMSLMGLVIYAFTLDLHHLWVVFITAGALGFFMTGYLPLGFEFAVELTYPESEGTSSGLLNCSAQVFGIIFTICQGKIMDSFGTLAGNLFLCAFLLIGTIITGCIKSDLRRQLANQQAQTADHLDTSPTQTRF

[5] = substrate: C[N+](C)(C)CCO; conditions: co-expressed human choline kinase A (hChKA), DMEM with 10% FBS, 37 °C, 60 min, labelled compound
Source text: [3H]choline uptake in transfected HEK293 cells on hMfsd7c (human MFSD7c, FLVCR2) | The kinetics (Km) and Vmax for choline import by human Mfsd7c under this condition

[6] = substrate: C[N+](C)(C)CCO; conditions: co-expressed human choline kinase A (hChKA), DMEM with 10% FBS, 37 °C, 60 min, labelled compound; remark: listed apart in the source
Source text: [3H]choline uptake in transfected HEK293 cells on hMfsd7c (human MFSD7c, FLVCR2) | The Km and Vmax for importing choline by S203Y mutant under this condition were […]

Molecule: C[N+](C)(C)CCO [choline]
- [3H]choline uptake in transfected HEK293 cells [1]: these MFSD7c orthologs also exhibited choline transport activity
- [3H]choline uptake in transfected HEK293 cells [2]: these MFSD7c orthologs also exhibited choline transport activity
- [3H]choline uptake in transfected HEK293 cells [3]: these MFSD7c orthologs also exhibited choline transport activity
- [3H]choline uptake in transfected HEK293 cells [4]: these MFSD7c orthologs also exhibited choline transport activity

B1: hMfsd7c (human MFSD7c, FLVCR2) (Homo sapiens) (protein)
chain: MVNEGPNQEESDDTPVPESALQADPSVSVHPSVSVHPSVSINPSVSVHPSSSAHPSALAQPSGLAHPSSSGPEDLSVIKVSRRRWAVVLVFSCYSMCNSFQWIQYGSINNIFMHFYGVSAFAIDWLSMCYMLTYIPLLLPVAWLLEKFGLRTIALTGSALNCLGAWVKLGSLKPHLFPVTVVGQLICSVAQVFILGMPSRIASVWFGANEVSTACSVAVFGNQLGIAIGFLVPPVLVPNIEDRDELAYHISIMFYIIGGVATLLLILVIIVFKEKPKYPPSRAQSLSYALTSPDASYLGSIARLFKNLNFVLLVITYGLNAGAFYALSTLLNRMVIWHYPGEEVNAGRIGLTIVIAGMLGAVISGIWLDRSKTYKETTLVVYIMTLVGMVVYTFTLNLGHLWVVFITAGTMGFFMTGYLPLGFEFAVELTYPESEGISSGLLNISAQVFGIIFTISQGQIIDNYGTKPGNIFLCVFLTLGAALTAFIKADLRRQKANKETLENKLQEEEEESNTSKVPTAVSEDHL
notes: full-length cDNA in pcDNA3.1, transiently expressed in HEK293 cells
- Km [5]: 100 µM

B2: hMfsd7c (human MFSD7c, FLVCR2) (Homo sapiens; S203Y) (protein)
chain: MVNEGPNQEESDDTPVPESALQADPSVSVHPSVSVHPSVSINPSVSVHPSSSAHPSALAQPSGLAHPSSSGPEDLSVIKVSRRRWAVVLVFSCYSMCNSFQWIQYGSINNIFMHFYGVSAFAIDWLSMCYMLTYIPLLLPVAWLLEKFGLRTIALTGSALNCLGAWVKLGSLKPHLFPVTVVGQLICSVAQVFILGMPSRIAYVWFGANEVSTACSVAVFGNQLGIAIGFLVPPVLVPNIEDRDELAYHISIMFYIIGGVATLLLILVIIVFKEKPKYPPSRAQSLSYALTSPDASYLGSIARLFKNLNFVLLVITYGLNAGAFYALSTLLNRMVIWHYPGEEVNAGRIGLTIVIAGMLGAVISGIWLDRSKTYKETTLVVYIMTLVGMVVYTFTLNLGHLWVVFITAGTMGFFMTGYLPLGFEFAVELTYPESEGISSGLLNISAQVFGIIFTISQGQIIDNYGTKPGNIFLCVFLTLGAALTAFIKADLRRQKANKETLENKLQEEEEESNTSKVPTAVSEDHL
notes: as for B1
- Km [6]: 1197 µM
